Measurements reported in patent US11020358B2, “Method for the anti-senescence of and/or rejuvenating stem cells” (GWO XI STEM CELL APPLIED TECHNOLOGY CO., LTD., priority 2014, dated 2021).

How the values were obtained:
Type in all cases: cell-based, human
ADSCs [1] = assay: Flow cytometry of surface antigens of ADSCs; details: compared to untreated group
Procedure: Four portions of equal volume of the above culture medium containing the sub-cultured ADSCs were separately handled by adding thereinto H2O2 (purchased from Sigma-Aldrich) at a final concentration of 100 μM and reacting for 2 hours to induce senescence of the ADSCs, replacing the culture medium with a fresh culture medium, adding thereinto TC (trans-cinnamaldehyde, purchased from Sigma-Aldrich) at a final concentration of 0, 2, 4 or 6 μM and reacting for 6 hours, so as to obtain “H2O2 group (i.e., treated with H2O2 for 2 hours, but not treated with TC),” “H2O2+TC2 group (i.e., treated with H2O2 for 2 hours and then treated with 2 μM of TC for 6 hours),” “H2O2+TC4 group (i.e., treated with H2O2 for 2 hours and then treated with 4 μM of TC for 6 hours),” and “H2O2+TC6 group (i.e., treated with H2O2 for 2 hours and then treated with 6 μM of TC for 6 hours)” ADSCs.
Four portions of equal volume of the above culture medium containing the sub-cultured ADSCs were handled by adding thereinto TC at final concentrations of 0, 2, 4 and 6 μM respectively, and reacting for 6 hours to obtain “untreated group (i.e., without any treatment),” “TC2 group (i.e., treated only with 2 μM of TC),” “TC4 group (i.e., treated only with 4 μM of TC)” and “TC6 group (i.e., treated only with 6 μM of TC)” ADSCs. […]

ADSCs [2] = assay: Adipogenic differentiation assay (Oil Red O); details: H2O2 group ADSCs (100 μM 2 h), compared to untreated group
Procedure: Four portions of equal volume of the above culture medium containing the sub-cultured ADSCs were separately handled by adding thereinto H2O2 (purchased from Sigma-Aldrich) at a final concentration of 100 μM and reacting for 2 hours to induce senescence of the ADSCs, replacing the culture medium with a fresh culture medium, adding thereinto TC (trans-cinnamaldehyde, purchased from Sigma-Aldrich) at a final concentration of 0, 2, 4 or 6 μM and reacting for 6 hours, so as to obtain “H2O2 group (i.e., treated with H2O2 for 2 hours, but not treated with TC),” “H2O2+TC2 group (i.e., treated with H2O2 for 2 hours and then treated with 2 μM of TC for 6 hours),” “H2O2+TC4 group (i.e., treated with H2O2 for 2 hours and then treated with 4 μM of TC for 6 hours),” and “H2O2+TC6 group (i.e., treated with H2O2 for 2 hours and then treated with 6 μM of TC for 6 hours)” ADSCs. […]
After being photographed, the oil droplets were extracted from the cells in each sample with isopropanol containing 4% Nonidet P-40. The absorbance of the oil droplets at a wavelength of 510 nm (i.e., OD510) of each sample were measured, wherein the absorbance corresponds to the number of cells in orange-red color (i.e., cells present after adipogenic differentiation).

ADSCs [3] = assay: Microarray analysis of gene expression in ADSCs; details: H2O2+TC6 group ADSCs, H2O2 group set as one fold; p < 0.05
Procedure: Four portions of equal volume of the above culture medium containing the sub-cultured ADSCs were separately handled by adding thereinto H2O2 (purchased from Sigma-Aldrich) at a final concentration of 100 μM and reacting for 2 hours to induce senescence of the ADSCs, replacing the culture medium with a fresh culture medium, adding thereinto TC (trans-cinnamaldehyde, purchased from Sigma-Aldrich) at a final concentration of 0, 2, 4 or 6 μM and reacting for 6 hours, so as to obtain “H2O2 group (i.e., treated with H2O2 for 2 hours, but not treated with TC),” “H2O2+TC2 group (i.e., treated with H2O2 for 2 hours and then treated with 2 μM of TC for 6 hours),” “H2O2+TC4 group (i.e., treated with H2O2 for 2 hours and then treated with 4 μM of TC for 6 hours),” and “H2O2+TC6 group (i.e., treated with H2O2 for 2 hours and then treated with 6 μM of TC for 6 hours)” ADSCs. Each of the total cellular RNA of ADSCs of “H2O2 group” and “H2O2+TC6 group” from Experiment (3-1) was handled as follows. […] The products thus obtained are single strand cDNA of these genes. The cDNA was hybridized with a gene chip (Affymetrix GeneChip Human Genome U133 plus 2.0 Array, Affymetrix). Then, the gene chip was scanned and analyzed with a microarray scanner system (Gene Chip® Scanner 3000).

SMILES	expression phenotypes of the surface antigens (ADSCs [1]; 100 μM H2O2 2 h (H2O2 group))	cell number after adipogenic differentiation (OD510) (ADSCs [2])	expression phenotypes of the surface antigens (ADSCs [1]; 100 μM H2O2 2 h then 6 μM TC 6 h (H2O2+TC6 group))	CCND1 gene expression level (ADSCs [3]) [Folds]	E2F6 gene expression level (ADSCs [3]) [Folds]	EIF5 gene expression level (ADSCs [3]) [Folds]	GADD45B gene expression level (ADSCs [3]) [Folds]	NYFA gene expression level (ADSCs [3]) [Folds]	PCNA gene expression level (ADSCs [3]) [Folds]	PIM1 gene expression level (ADSCs [3]) [Folds]	POLR3H gene expression level (ADSCs [3]) [Folds]	SIRT1 gene expression level (ADSCs [3]) [Folds]	hTERT gene expression level (ADSCs [3]) [Folds]	p16 gene expression level (ADSCs [3]) [Folds]	p53 gene expression level (ADSCs [3]) [Folds]
OO [H2O2, reference compound]	not significantly changed	significantly reduced	–	–	–	–	–	–	–	–	–	–	–	–	–
O=C/C=C/c1ccccc1 [TC, trans-cinnamaldehyde]	–	–	not significantly changed	5.8	2.2	3.4	−4.6	7.2	2	−4.4	2.2	2.4	2	−1.8	−1
